How the values were obtained:
[1] = molecular target: T1, human recombinant enzyme (CYP26) (Homo sapiens, UniProt O43174); conditions: read-out: Km reported for the human recombinant enzyme; cited from earlier work
T1 sequence (O43174 1-497): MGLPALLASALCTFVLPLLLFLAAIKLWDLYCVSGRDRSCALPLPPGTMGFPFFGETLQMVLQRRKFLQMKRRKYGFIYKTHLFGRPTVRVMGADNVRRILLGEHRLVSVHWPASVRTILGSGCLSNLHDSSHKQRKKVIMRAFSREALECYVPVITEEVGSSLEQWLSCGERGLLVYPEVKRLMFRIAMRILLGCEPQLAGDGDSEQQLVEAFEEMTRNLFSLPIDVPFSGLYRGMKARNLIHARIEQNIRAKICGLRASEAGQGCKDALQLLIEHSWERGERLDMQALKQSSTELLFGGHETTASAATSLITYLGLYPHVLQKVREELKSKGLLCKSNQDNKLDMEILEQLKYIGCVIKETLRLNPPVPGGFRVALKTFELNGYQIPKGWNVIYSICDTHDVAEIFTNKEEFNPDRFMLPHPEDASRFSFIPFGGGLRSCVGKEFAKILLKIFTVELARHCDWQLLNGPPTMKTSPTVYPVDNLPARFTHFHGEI

CYP26 = molecular target: T2, CYP26 (Mus musculus, UniProt O55127); assay: CYP26 inhibition: substrate depletion assay for ATRA metabolism in induced mouse liver microsomes; type: biochemical
T2 construct: substrate depletion assay for ATRA metabolism in mouse microsomes; tissue Xenotech; host or cells: liver microsomes of mice treated with ATRA for four days
T2 sequence (O55127 1-497): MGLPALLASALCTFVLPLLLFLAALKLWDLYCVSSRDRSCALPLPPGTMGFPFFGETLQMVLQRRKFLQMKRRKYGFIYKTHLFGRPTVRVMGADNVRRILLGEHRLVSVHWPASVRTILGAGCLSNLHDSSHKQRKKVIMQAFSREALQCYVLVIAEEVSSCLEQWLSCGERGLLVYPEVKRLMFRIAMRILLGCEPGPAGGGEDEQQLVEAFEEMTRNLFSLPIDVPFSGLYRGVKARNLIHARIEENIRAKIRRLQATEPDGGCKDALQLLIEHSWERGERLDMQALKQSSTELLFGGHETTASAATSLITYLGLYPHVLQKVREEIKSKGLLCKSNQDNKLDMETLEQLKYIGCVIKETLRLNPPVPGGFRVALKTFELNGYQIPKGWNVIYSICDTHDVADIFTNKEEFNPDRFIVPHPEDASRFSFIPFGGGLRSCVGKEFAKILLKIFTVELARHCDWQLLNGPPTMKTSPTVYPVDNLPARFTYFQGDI

[2] = substrate: CC1=C(/C=C/C(C)=C/C=C/C(C)=C/C(=O)O)C(C)(C)CCC1; assay: cells, lysate or membranes named; conditions: other: induced mouse microsomes, Michaelis-Menten kinetics; pH 7.4

Molecule: CC1=C(/C=C/C(C)=C/C=C/C(C)=C/C(=O)O)C(C)(C)CCC1 [ATRA, all-trans retinoic acid]
- Km [1]: ~0.01 µM

Molecule: CCC(CC)C(c1ccc2nc(OCC(C)(C)C(=O)O)sc2c1)n1cncn1 (stereo not shown) [Example-1, 3-((6-(2-Ethyl-1-(1H-1,2,4-triazol-1-yl)butyl)benzo[d]thiazol-2-yl)oxy)-2,2-dimethylpropanoic Acid]
- IC50 (CYP26): < 1000 nM

Molecule: CCC(CC)C(c1ccc2nc(OCC(C)(C)C(=O)O)sc2c1)n1cnnc1 (stereo not shown) [Example-2, 3-((6-(2-Ethyl-1-(4H-1,2,4-triazol-4-yl)butyl)benzo[d]thiazol-2-yl)oxy)-2,2-dimethylpropanoic Acid]
- IC50 (CYP26): < 1000 nM

Molecule: CCC(CC)C(c1ccc2nc(OCC3(C(=O)O)CCCC3)sc2c1)n1cncn1 (stereo not shown) [Example-3, 1-(((6-(2-Ethyl-1-(1H-1,2,4-triazol-1-yl)butyl)benzo[d]thiazol-2-yl)oxy)methyl)cyclopentanecarboxylic Acid]
- IC50 (CYP26): < 1000 nM

Molecule: CCC(CC)C(c1ccc2nc(OCC3(C(=O)O)CCCC3)sc2c1)n1cnnc1 (stereo not shown) [Example-4, 1-(((6-(2-Ethyl-1-(4H-1,2,4-triazol-4-yl)butyl)benzo[d]thiazol-2-yl)oxy)methyl)cyclopentanecarboxylic Acid]
- IC50 (CYP26): < 1000 nM

Molecule: CCC(CC)C(c1ccc2nc(OCC3(C(=O)O)CCCCC3)sc2c1)n1cncn1 (stereo not shown) [Example-5, 1-(((6-(2-ethyl-1-(1H-1,2,4-triazol-1-yl)butyl)benzo[d]thiazol-2-yl)oxy)methyl)cyclohexanecarboxylic Acid]
- IC50 (CYP26): < 1000 nM

Molecule: CCC(CC)C(c1ccc2nc(OCC3(C(=O)O)CCCCC3)sc2c1)n1cnnc1 (stereo not shown) [Example-6, 1-(((6-(2-Ethyl-1-(4H-1,2,4-triazol-4-yl)butyl)benzo[d]thiazol-2-yl)oxy)methyl)cyclohexanecarboxylic Acid]
- IC50 (CYP26): < 1000 nM

Molecule: CCC(CC)C(c1ccc2nc(-c3ccc(C(=O)O)cc3)sc2c1)n1cncn1 (stereo not shown) [Example-7, 4-(6-(2-ethyl-1-(1H-1,2,4-triazol-1-yl)butyl)benzo[d]thiazol-2-yl)benzoic Acid]
- IC50 (CYP26): < 1000 nM

Molecule: CCC(CC)C(c1ccc2nc(-c3ccc(C(=O)O)cc3)sc2c1)n1cnnc1 (stereo not shown) [Example-8, 4-(6-(2-ethyl-1-(4H-1,2,4-triazol-4-yl)butyl)benzo[d]thiazol-2-yl)benzoic Acid]
- IC50 (CYP26): < 1000 nM

B1: CYP26 (Mus musculus) (protein)
chain: MGLPALLASALCTFVLPLLLFLAALKLWDLYCVSSRDRSCALPLPPGTMGFPFFGETLQMVLQRRKFLQMKRRKYGFIYKTHLFGRPTVRVMGADNVRRILLGEHRLVSVHWPASVRTILGAGCLSNLHDSSHKQRKKVIMQAFSREALQCYVLVIAEEVSSCLEQWLSCGERGLLVYPEVKRLMFRIAMRILLGCEPGPAGGGEDEQQLVEAFEEMTRNLFSLPIDVPFSGLYRGVKARNLIHARIEENIRAKIRRLQATEPDGGCKDALQLLIEHSWERGERLDMQALKQSSTELLFGGHETTASAATSLITYLGLYPHVLQKVREEIKSKGLLCKSNQDNKLDMETLEQLKYIGCVIKETLRLNPPVPGGFRVALKTFELNGYQIPKGWNVIYSICDTHDVADIFTNKEEFNPDRFIVPHPEDASRFSFIPFGGGLRSCVGKEFAKILLKIFTVELARHCDWQLLNGPPTMKTSPTVYPVDNLPARFTYFQGDI
- Km [2]: 0.004 µM
